Test system: psoriasis
Test: Treatment of an adult with psoriasis with NGNA
Format: in vivo, human
Settings: compared to previous treatments
Procedure: Example 2. An adult with psoriasis was treated with 5 mg NGNA per day administered sublingually. Administration caused symptoms associated with the psoriasis including redness, scaling spots, itching, burning and soreness to be reduced as compared to previous treatments.
Example 3. An adult with psoriasis was treated with 5 g NGNA per day administered orally. Administration caused symptoms associated with the psoriasis including redness, scaling spots, itching, burning and soreness to be reduced as compared to previous treatments.
Example 4. An adult with psoriasis was treated with NGNA supplied in a hot water bath.
Example 5. An adult with psoriasis was treated with a dermal spray solution of NGNA in water.

Measured: symptoms associated with the psoriasis including redness, scaling spots, itching, burning and soreness

O=C(CO)N[C@H]1[C@H]([C@H](O)[C@H](O)CO)O[C@](O)(C(=O)O)C[C@@H]1O [NGNA, n-glycolylneuraminic acid]
reduced: 5 mg NGNA per day sublingually | 5 g NGNA per day orally | NGNA supplied in a hot water bath | dermal spray solution of NGNA in water
